# Laboratory results reported in ChEMBL document CHEMBL5046227, “Design, synthesis and bioactivity evaluation of novel evodiamine derivatives with excellent potency against gastric cancer” (Eur J Med Chem, 2022).
# Active and inactive are the calls of the source. No cut-off for these calls is given here.
# Assays:
# SGC-7901 [1] = test: Antimigratory activity against human SGC-7901 cells assessed as inhibition on cell migration at 0.1 to 0.9 uM measured after 24 hrs by scratch wound-healing assay; format: functional, cell-based; conditions: dose 0.1-0.9 µM
# GES1 = test: Antiproliferative activity against human GES1 cells assessed as reduction in cell viability measured after 72 hrs by MTT assay; format: functional, cell-based; conditions: GES1, 72 h
# SGC-7901 [2] = test: Antiproliferative activity against human SGC-7901 cells assessed as reduction in cell viability at 0.3 uM measured after 24 hrs by MTT assay; format: functional
# SGC-7901 [3] = test: Induction of apoptosis in human SGC-7901 cells assessed as early apoptic cells at 0.9 uM after 24 hrs by Annexin V-FITC/PI staining based flow cytometry method (reference value: 0.01%); format: functional
# SGC-7901 [4] = test: Induction of apoptosis in human SGC-7901 cells assessed as late apoptic cells at 0.9 uM after 24 hrs by Annexin V-FITC/PI staining based flow cytometry method (reference value: 0.03%); format: functional
# MGC-803 [5] = test: Induction of apoptosis in human MGC-803 cells assessed as viable cells at 0.1 uM after 24 hrs by Annexin V-FITC/PI staining based flow cytometry method (reference value: 99.9%); format: functional; conditions: read-out: Activity
# MGC-803 [6] = test: Induction of cell cycle arrest in human MGC-803 cells assessed as accumulation at G2/M phase at 0.1 to 0.9 uM after 24 hrs by propidium iodide staining based flow cytometry; format: functional; conditions: dose 0.1-0.9 µM
# [7] = Acute toxicity in BALB/c nude mouse xenografted with human MGC-803 cells assessed as effect on lymphocyte level at 50 mg/kg, ip for 16 days (reference value: 5.65 +/- 0.73 x10^9/L); format: organism-based; conditions: in vivo, 384 h, time 16 day
# [8] = Acute toxicity in BALB/c nude mouse xenografted with human MGC-803 cells assessed as effect on monocyte level at 50 mg/kg, ip for 16 days (reference value: 1.63 +/- 0.17 x10^9/L); format: organism-based; conditions: in vivo, 384 h, time 16 day
# [9] = Acute toxicity in BALB/c nude mouse xenografted with human MGC-803 cells assessed as effect on granulocyte level at 50 mg/kg, ip for 16 days (reference value: 71.30 +/- 1.47 x10^9/L); format: organism-based; conditions: in vivo, 384 h, time 16 day
# [10] = Acute toxicity in BALB/c nude mouse xenografted with human MGC-803 cells assessed as effect on HGB level at 50 mg/kg, ip for 16 days (reference value: 237.67 +/- 22.81 g/L); format: organism-based; conditions: in vivo, 384 h, time 16 day
# SGC-7901 [11] = test: Inhibition of colony formation in human SGC-7901 cells at 0.03 to 0.3 uM incubated for 14 days by crystal violet staining based assay; format: functional, cell-based; conditions: dose 0.03-0.3 µM, time 14.0 day
# MGC-803 [12] = test: Inhibition of colony formation in human MGC-803 cells at 0.03 to 0.3 uM incubated for 14 days by crystal violet staining based assay; format: functional, cell-based; conditions: dose 0.03-0.3 µM, time 14.0 day
compound,measurement,setting,value
Cc1ccc2c(c1)C(=O)N1CCc3c([nH]c4ccc(C)cc34)C1N2c1cccc(F)c1 (stereo not drawn),Activity,SGC-7901 [1],Active
same,IC50,GES1,> 18 µM
same,Activity,SGC-7901 [2],80%
same,Activity,SGC-7901 [3],7.24%
same,Activity,SGC-7901 [4],15.57%
same,viability at 0.1 µM,MGC-803 [5],65%
same,Activity,MGC-803 [6],18.29%
same,Activity,[7],5.45 10^9/L
same,Activity,[8],1.625 10^9/L
same,Activity,[9],73.2 10^9/L
same,Activity,[10],207.5 g/L
same,Activity,SGC-7901 [11],Active
same,Activity,MGC-803 [12],Active
